Some test systems named below: OVCAR-5; A498; SK-OV-3; HCT-116; IGROV-1; NCI-H23; OVCAR-4; RPMI-8226; RXF 393; SR; HOP-62; NCI/ADR-RES; HCC 2998; UO-31; Malme-3M; M14; TK-10; OVCAR-8; SK-MEL-2; HCT-15.
Assay in all cases: NCI-60 cell line screen, 48 h

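The compound was tested at five concentrations on cells cultured in 96-well plates, with a 48-hour exposure period. GI50 is the concentration that inhibits growth by half.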 The source made the active and inactive calls. No stated cut-off is given here; in the data, active = GI50 up to about 1.1 µM and inactive = higher. Bounds are passed on as bounds.

Turning to `COc1ccc2c(c1)CCCc1c-2nc2ccccc2c1N`, the GI50 in the assay on OVCAR-5 was 10.2 µM (inactive); in the assay on A498, 8.24 µM (inactive); in the assay with SK-OV-3 it was 10.4 µM (inactive); in the assay with HCT-116, 5.81 µM (inactive); in the assay on IGROV-1 it was 12.4 µM (inactive); with NCI-H23, 15.4 µM (inactive). Moreover, the GI50 in the assay with OVCAR-4 is 12.6 µM (inactive); in the assay on RPMI-8226, 5.87 µM (inactive); in the assay on RXF 393, 4.72 µM (inactive); in the assay on SR it was 2.57 µM (inactive); with HOP-62 it was 1.52 µM (inactive); in the assay on NCI/ADR-RES, 12.9 µM (inactive). In addition, the GI50 with HCC 2998 was 1.87 µM (inactive); in the assay on UO-31, 5.35 µM (inactive); in the assay with Malme-3M, 14.1 µM (inactive); in the assay with M14, 9.1 µM (inactive); in the assay with TK-10, 10.7 µM (inactive); in the assay with OVCAR-8 it was 12.9 µM (inactive). For the same compound, the GI50 was 15.7 µM (inactive) with SK-MEL-2 and 12.5 µM in the assay on HCT-15.
Turning to `N=C(N)NS(=O)(=O)c1ccc(Nc2c3ccccc3nc3c(C(=O)NCCO)cccc23)cc1`, the GI50 in the assay on OVCAR-5 is 0.244 µM (active); in the assay on A498, 0.13 µM (active); with SK-OV-3, 0.236 µM (active); in the assay on HCT-116, 0.223 µM (active); with IGROV-1 it was 0.141 µM (active); with NCI-H23, 0.167 µM (active). The GI50 with OVCAR-4 is 0.261 µM (active); in the assay with RPMI-8226 it was 0.162 µM (active); in the assay on RXF 393 it was 0.173 µM (active); in the assay on SR, 0.136 µM (active); with HOP-62, 0.186 µM (active); in the assay on NCI/ADR-RES, 0.296 µM (active). The GI50 was 0.19 µM (active) with HCC 2998; 0.175 µM (active) with UO-31; 0.156 µM (active) with Malme-3M; 0.183 µM (active) with M14; 0.281 µM (active) in the assay with TK-10; 0.185 µM (active) in the assay with OVCAR-8. Moreover, the GI50 in the assay on SK-MEL-2 was 0.199 µM (active); in the assay on HCT-15, 0.236 µM.
Take `NC(=O)CC(/N=C1\C(=O)OC(C(O)CO)\C1=N/C(CC(N)=O)C(=O)O)C(=O)O` (configuration not stated): the GI50 in the assay with OVCAR-5 was > 10 µM (inactive); with A498, > 100 µM (inactive); in the assay on SK-OV-3 it was > 100 µM (inactive); in the assay with HCT-116, > 100 µM (inactive); in the assay with IGROV-1 it was > 100 µM (inactive); in the assay on NCI-H23, > 100 µM (inactive). Further, the GI50 with OVCAR-4, in the assay on RPMI-8226, in the assay with RXF 393, with SR, in the assay with HOP-62 and with NCI/ADR-RES was > 100 µM (inactive) throughout. Also, the GI50 in the assay on HCC 2998, with UO-31, in the assay with Malme-3M, in the assay with M14, in the assay on TK-10 and with OVCAR-8 was > 100 µM (inactive) each time. Further, the GI50 with SK-MEL-2 is > 100 µM (inactive); in the assay on HCT-15, more than 100 µM.
`CCOP(=O)(CCCC(O)CNc1nc(N)nc(Cl)c1/N=N/c1ccc(Cl)cc1)OCC` (configuration not stated): the GI50 in the assay with OVCAR-5 is 10.9 µM (inactive); with A498, 6.7 µM (inactive); in the assay with SK-OV-3, 3.19 µM (inactive); with HCT-116, 8.28 µM (inactive); in the assay with IGROV-1 it was 11.9 µM (inactive); in the assay on NCI-H23 it was 12.1 µM (inactive). The GI50 with OVCAR-4 was 4.45 µM (inactive); with RPMI-8226 it was 2.82 µM (inactive); with RXF 393 it was 5.24 µM (inactive); with SR, 2.64 µM (inactive); with HOP-62, 9.89 µM (inactive); in the assay on NCI/ADR-RES, 10.4 µM (inactive). Further, the GI50 in the assay on HCC 2998 is 15.4 µM (inactive); with UO-31, 3.56 µM (inactive); in the assay with Malme-3M, 7.64 µM (inactive); in the assay with TK-10 it was 3.67 µM (inactive); in the assay on OVCAR-8 it was 8.47 µM (inactive); in the assay on SK-MEL-2 it was 12.2 µM (inactive). Moreover, the GI50 with HCT-15 is 6.28 µM.
Take `Cc1ccc2c(c1)/C(=N/Nc1ccccc1[N+](=O)[O-])C(=O)N2`: the GI50 with OVCAR-5 is 10.9 µM (inactive); in the assay on A498 it was 4.18 µM (inactive); with SK-OV-3 it was 4.68 µM (inactive); in the assay with HCT-116, 3.01 µM (inactive); in the assay with IGROV-1, 1.68 µM (inactive); in the assay on NCI-H23 it was 7.76 µM (inactive). Further, the GI50 in the assay on OVCAR-4 was 2.37 µM (inactive); with RPMI-8226, 6.73 µM (inactive); in the assay with RXF 393 it was 6.52 µM (inactive); in the assay on SR, 4.06 µM (inactive); in the assay with HOP-62, 2.82 µM (inactive); with NCI/ADR-RES it was 3.72 µM (inactive). The GI50 in the assay on HCC 2998 was > 100 µM (inactive); with UO-31 it was 2.05 µM (inactive); in the assay on Malme-3M it was 3.48 µM (inactive); in the assay on M14 it was 81.5 µM (inactive); in the assay on TK-10 it was 3.24 µM (inactive); with OVCAR-8, 3.45 µM (inactive). The GI50 in the assay on SK-MEL-2 was > 100 µM (inactive); in the assay with HCT-15, more than 100 µM.
In the case of `O=C(Cc1csc2[n+]1C(=O)/C(=C/c1ccc(Cl)cc1)S2)Nc1ccccc1`, the GI50 with OVCAR-5 was 22.5 µM (inactive); in the assay on A498 it was 15.7 µM (inactive); with SK-OV-3 it was 19.4 µM (inactive); in the assay with HCT-116, 16.8 µM (inactive); in the assay with IGROV-1, 16.9 µM (inactive); in the assay on NCI-H23 it was 24.2 µM (inactive). Moreover, the GI50 in the assay with OVCAR-4 is 30.3 µM (inactive); in the assay on RPMI-8226, 23.4 µM (inactive); with RXF 393, 18.3 µM (inactive); in the assay on SR, 24.3 µM (inactive); in the assay on HOP-62 it was 2.01 µM (inactive); in the assay on NCI/ADR-RES, 21.7 µM (inactive). Moreover, the GI50 in the assay on HCC 2998 is 19.6 µM (inactive); in the assay with UO-31, 21.9 µM (inactive); in the assay on Malme-3M, 30.1 µM (inactive); in the assay with M14, 28.1 µM (inactive); in the assay with TK-10 it was 31.6 µM (inactive); with OVCAR-8, 40.7 µM (inactive). The results for the GI50 with SK-MEL-2 and with HCT-15 were 17.9 µM (inactive) and 23.8 µM, respectively.
On to `O=C(O)C1C(Br)(c2ccccc2)C1(Br)c1ccccc1` (configuration not stated), for which the GI50 with OVCAR-5 was 58.9 µM (inactive); in the assay on A498, 25.5 µM (inactive); with SK-OV-3, 27.5 µM (inactive); in the assay with HCT-116, 39.7 µM (inactive); with IGROV-1 it was 17.8 µM (inactive); in the assay with NCI-H23, 38.4 µM (inactive). The GI50 in the assay with OVCAR-4 was 28.7 µM (inactive); in the assay with RPMI-8226, 11.8 µM (inactive); in the assay with RXF 393, 19.5 µM (inactive); in the assay on SR, 2.88 µM (inactive); with HOP-62, 37 µM (inactive); with NCI/ADR-RES it was 52.4 µM (inactive). The GI50 in the assay on HCC 2998 is 22.6 µM (inactive); in the assay with UO-31 it was 16.2 µM (inactive); in the assay with Malme-3M, 35.6 µM (inactive); in the assay on M14, 48.2 µM (inactive); in the assay on TK-10 it was 33.7 µM (inactive); in the assay with OVCAR-8 it was 23 µM (inactive). Moreover, the GI50 is 37.5 µM (inactive) in the assay on SK-MEL-2 and 18.5 µM in the assay with HCT-15.
On to `Cn1nc(C(=O)N2CC(CCl)c3c2cc(N)c2ccccc32)cc1NC(=O)Nc1cc(C(=O)N2CC(CCl)c3c2cc(N)c2ccccc32)nn1C` (configuration not stated), for which the GI50 is 0.301 µM (active) with OVCAR-5; 8.69 µM (inactive) with A498; 0.3 µM (active) in the assay with SK-OV-3; 0.0818 µM (active) with HCT-116; 0.0225 µM (active) in the assay with NCI-H23; 0.449 µM (active) with OVCAR-4. Moreover, the GI50 in the assay with RPMI-8226 is 3.3 µM (inactive); with RXF 393 it was 0.0447 µM (active); with SR, < 0.01 µM (active); with HOP-62 it was 0.682 µM (active); with NCI/ADR-RES, > 100 µM (inactive); with HCC 2998 it was 1.21 µM (inactive). Besides, the GI50 with UO-31 is 14.1 µM (inactive); in the assay with Malme-3M it was 0.21 µM (active); in the assay with M14, 0.349 µM (active); in the assay with TK-10 it was > 100 µM (inactive); in the assay on OVCAR-8, 0.249 µM (active); in the assay on SK-MEL-2 it was 0.13 µM (active). The compound also had a GI50 with HCT-15 of 44.3 µM.
For the compound `CC1CCC2(CC1)NC1=C(CC(C)CC1)C1=C2CC(C)CC1` (configuration not stated), the GI50 was 18.7 µM (inactive) in the assay on OVCAR-5; 34 µM (inactive) in the assay on A498; 38.8 µM (inactive) in the assay with SK-OV-3; 14.8 µM (inactive) with HCT-116; 31.3 µM (inactive) in the assay on IGROV-1; 20.8 µM (inactive) with NCI-H23. Besides, the GI50 with OVCAR-4 was 22.2 µM (inactive); with RPMI-8226 it was 23.3 µM (inactive); in the assay with RXF 393, 15.8 µM (inactive); in the assay on SR, 21.8 µM (inactive); with NCI/ADR-RES it was > 10 µM (inactive); with HCC 2998, 18.6 µM (inactive). For the same compound, the GI50 in the assay on UO-31 was 20.3 µM (inactive); with Malme-3M, 26.9 µM (inactive); in the assay with M14 it was 18.5 µM (inactive); with TK-10, 26.5 µM (inactive); in the assay on OVCAR-8, 23 µM (inactive); in the assay on SK-MEL-2, 21.8 µM (inactive). This compound showed a GI50 in the assay on HCT-15 of 18.1 µM.
Turning to `CN(C)c1nc2sc3c(c2c(=O)o1)CCCC3`, the GI50 was 60.1 µM (inactive) with OVCAR-5; 16 µM (inactive) in the assay with A498; 31.6 µM (inactive) in the assay with SK-OV-3; 44.9 µM (inactive) with HCT-116; 72.8 µM (inactive) in the assay on IGROV-1; 46.3 µM (inactive) with NCI-H23. Besides, the GI50 with OVCAR-4 is 27.9 µM (inactive); in the assay with RPMI-8226 it was 35.8 µM (inactive); in the assay on RXF 393, 15.5 µM (inactive); in the assay on SR, 65.2 µM (inactive); in the assay on HOP-62, 25.6 µM (inactive); in the assay with NCI/ADR-RES, 43 µM (inactive). The GI50 with HCC 2998 was > 100 µM (inactive); in the assay with UO-31 it was 7.46 µM (inactive); with Malme-3M, 25.9 µM (inactive); in the assay on M14, 40.1 µM (inactive); with TK-10, > 100 µM (inactive); with OVCAR-8 it was 31.8 µM (inactive). In addition, the GI50 in the assay on SK-MEL-2 was 25.3 µM (inactive); in the assay with HCT-15, 33.3 µM.

The values are drawn from ChEMBL document CHEMBL1201862, “PubChem BioAssay data set” (2004).
